From patent US11014902B2, “MYC G-quadruplex stabilizing small molecules and their use” (The United States of America, as represented by the …, priority 2015, dated 2021)

Assays:
[1] = test system: c-Myc protein in H157 cells; experiment: c-Myc protein expression by Western blot, H157; assay type: cell-based, human; conditions: 10 μM
Procedure: The effect of Compound 23 on the expression of c-Myc protein in the human lung cancer cell lines H1299 and H157 was also assayed. H1299 and H157 cells were treated with 10 μM Compound 23 and c-Myc protein expression levels quantified by Western blot. In Compound 23-treated H1299 cells, c-Myc protein expression levels were approximately 55% compared to untreated control cells. In Compound 23-treated H157 cells, c-Myc protein expression levels were approximately 74% compared to untreated control cells.

myeloma cells = experiment: Apoptosis (Annexin V/7-AAD staining, FACS); assay type: cell-based, human; conditions: 10 μM, 72 h
Procedure: To further explore the mechanism of action for the anticancer activity of Compound 1, cell cycle analysis was performed and monitored for potential induction of apoptotic death. […] Additionally, minimal increases in apoptosis were observed, by Annexin V/7-AAD staining and FACS analysis; only 13% of the cells were undergoing apoptosis (FIG. 5B).

wild type Pu27 sequence = experiment: PCR stop assay, wild type sequence; assay type: biochemical; conditions: concentrations comparable to the Kd
c-Myc protein = c-Myc protein translation in myeloma cells (Western blot); assay type: cell-based, human; conditions: 10 μM, maintained over 72 hours
Procedure: Since two thirds of multiple myeloma cases involve deregulated c-MYC expression (Kuehl and Bergsagel, Blood 2012, 120, 2351; Shou, et al., Proc Natl Acad Sci USA 2000, 97, 228), we elected to evaluate the cell viability effects of Compound 1 in a multiple myeloma model. […] This suppression was maintained over 72 hours, which is notable given the characteristic rapid replenishment of the protein—a phenomenon that complicates targeting c-Myc at the protein level (FIG. 4C). This effect was maintained across a genetically diverse set of 4 multiple myeloma lines. We observed decreases in c-MYC translation in all lines tested, and this effect also correlated with decreases in viability (FIG. 4D).
Cell pellets/tissue were homogenized and lysed in RIPA buffer on ice for 1 h. Protein was quantitated by BCA, and equal protein was loaded onto 4-12% Bis-Tris Gels (Novex), electrophoresed at 150 V for 75 min to obtain sufficient separation, and transferred via the iBlot system (Life Technologies). Successful transfer and uniform loading was confirmed by Ponceau S staining (Thermo Scientific). Blots were blocked in 10% dry milk in TBST, incubated with primary monoclonal antibodies in 5% BSA at concentrations designated by the manufacturer, and gently rotated at 4° C. overnight. […]

KRAS, VEGF G4s = experiment: Biophysical measurements of compound affinity, KRAS and VEGF G4s; assay type: binding
[2] = test system: c-MYC exon 2 transcription in CA46 cells; experiment: Exon specific qPCR assay, exon 2; assay type: cell-based, human; conditions: 10 μM, up to 48 hours
From the text: To confirm a G4 specific mechanism of action in cells, the CA46 Burkitt's Lymphoma line was used in an exon-specific assay, as previously reported (Boddupally, et al., J Med Chem 2012, 55, 6076). For most cell lines, 85-90% of c-Myc expression is controlled by the G4 located prior to exons 1 and 2 in the promoter. Furthermore, expression predominantly occurs following exon 2, due to a thousand-fold increase in transcription from this allele (Brown, et al., J Biol Chem 2011, 286, 41018). The CA46 Burkitt's Lymphoma cell line is an exception to this trend due to the existence of a chromosome (8:14) (Pelicci, et al., Proc Natl Acad Sci USA 1986, 83, 2984) translocation between exons 1 and 2, leaving exon 1 under G4 control. As a result, c-Myc expression from exon 2 is G4 independent (FIG. 3B). This renders the overall cell line resistant to G4-mediated c-Myc inhibition at the RNA and protein level, and proliferation should be uninhibited by G4-stabilizing agents.
CA46 cells were treated with ligands of interest or DMSO control at designated time points, washed in PBS, flash frozen, and RNA isolated using the Qiagen RNeasy Kit. RNA was quantified by NanoDrop, and 0.5 μg was reverse transcribed for use in qPCR. […]

| Compound | c-Myc protein expression levels compared to untreated control cells [1] | cells undergoing apoptosis (myeloma cells) | inhibition of PCR amplification (wild type Pu27 sequence) | c-Myc protein translation (c-Myc protein) | G4 binding (KRAS, VEGF G4s) | transcription from exon 2 [2] |
| --- | --- | --- | --- | --- | --- | --- |
| Cc1oc2ccc(O)c(CN3CCCCCC3)c2c1C(=O)Nc1ccc(C(F)(F)F)cc1 [Compound 23] | approximately 74% | – | – | – | – | – |
| Cc1ccc(NC(=O)c2c(C)oc3ccc(O)c(CN4CCCCCC4)c23)cc1 [Compound 1] | – | 13% | dose-dependent inhibition | significantly inhibited | complete lack of G4 binding | unaffected |
